Laboratory results: ChEMBL document CHEMBL3132769, “Fragment growing to retain or alter the selectivity of anchored kinase hinge-binding fragments” (Medchemcomm, 2014)

Key:
[1] = target: Serine/threonine-protein kinase Chk2 (Homo sapiens) (UniProt O96017); experiment: Inhibition of human full length CHK2 expressed in baculovirus assessed as substrate phosphorylation using fluorescence-labelled peptides as substrate at 0.06 uM after 90 mins by microfluidic peptide phosphorylation assay
[2] = target: Epidermal growth factor receptor (Homo sapiens) (UniProt P00533); experiment: Inhibition of human EGFR catalytic domain expressed in baculovirus assessed as substrate phosphorylation using fluorescence-labelled peptides as substrate at 0.06 uM after 90 mins by microfluidic peptide phosphorylation assay
Chain of Epidermal growth factor receptor (Homo sapiens) (P00533 whole entry, the tested form may be a part): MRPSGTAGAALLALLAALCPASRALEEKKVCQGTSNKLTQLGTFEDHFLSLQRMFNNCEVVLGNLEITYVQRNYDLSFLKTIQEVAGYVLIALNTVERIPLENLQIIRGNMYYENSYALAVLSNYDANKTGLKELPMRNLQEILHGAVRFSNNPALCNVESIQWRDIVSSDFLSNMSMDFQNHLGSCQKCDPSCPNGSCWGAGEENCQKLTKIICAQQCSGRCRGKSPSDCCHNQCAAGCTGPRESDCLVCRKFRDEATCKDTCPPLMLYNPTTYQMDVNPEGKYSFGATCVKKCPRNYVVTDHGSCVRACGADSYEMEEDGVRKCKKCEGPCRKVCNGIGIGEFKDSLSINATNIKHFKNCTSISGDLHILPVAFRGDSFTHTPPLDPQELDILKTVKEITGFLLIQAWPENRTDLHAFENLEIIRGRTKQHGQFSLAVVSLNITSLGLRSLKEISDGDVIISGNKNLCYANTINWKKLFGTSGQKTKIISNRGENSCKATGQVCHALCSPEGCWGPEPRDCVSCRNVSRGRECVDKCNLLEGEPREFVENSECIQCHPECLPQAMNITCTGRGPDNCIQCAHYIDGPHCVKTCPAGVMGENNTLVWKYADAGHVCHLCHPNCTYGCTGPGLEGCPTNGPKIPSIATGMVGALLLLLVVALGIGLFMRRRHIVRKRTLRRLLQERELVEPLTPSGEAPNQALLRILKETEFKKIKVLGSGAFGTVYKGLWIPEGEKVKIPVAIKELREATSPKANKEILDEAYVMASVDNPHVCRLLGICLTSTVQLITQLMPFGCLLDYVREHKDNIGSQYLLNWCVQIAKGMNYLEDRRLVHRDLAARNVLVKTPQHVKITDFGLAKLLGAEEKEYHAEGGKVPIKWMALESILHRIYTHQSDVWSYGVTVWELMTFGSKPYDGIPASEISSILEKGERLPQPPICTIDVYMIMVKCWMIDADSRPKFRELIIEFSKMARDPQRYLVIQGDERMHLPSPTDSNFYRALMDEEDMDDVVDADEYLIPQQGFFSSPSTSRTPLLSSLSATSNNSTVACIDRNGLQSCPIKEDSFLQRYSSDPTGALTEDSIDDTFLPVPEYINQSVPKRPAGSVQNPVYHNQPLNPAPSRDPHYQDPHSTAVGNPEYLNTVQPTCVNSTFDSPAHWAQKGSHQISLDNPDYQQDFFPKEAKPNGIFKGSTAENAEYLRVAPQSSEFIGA

[3] = target: T1, Inhibitor of nuclear factor kappa-B kinase subunit beta (Homo sapiens) (UniProt O14920); experiment: Inhibition of human full length IKK beta expressed in baculovirus assessed as substrate phosphorylation using fluorescence-labelled peptides as substrate at 70 uM after 90 mins by microfluidic peptide phosphorylation assay
T1 sequence (whole entry): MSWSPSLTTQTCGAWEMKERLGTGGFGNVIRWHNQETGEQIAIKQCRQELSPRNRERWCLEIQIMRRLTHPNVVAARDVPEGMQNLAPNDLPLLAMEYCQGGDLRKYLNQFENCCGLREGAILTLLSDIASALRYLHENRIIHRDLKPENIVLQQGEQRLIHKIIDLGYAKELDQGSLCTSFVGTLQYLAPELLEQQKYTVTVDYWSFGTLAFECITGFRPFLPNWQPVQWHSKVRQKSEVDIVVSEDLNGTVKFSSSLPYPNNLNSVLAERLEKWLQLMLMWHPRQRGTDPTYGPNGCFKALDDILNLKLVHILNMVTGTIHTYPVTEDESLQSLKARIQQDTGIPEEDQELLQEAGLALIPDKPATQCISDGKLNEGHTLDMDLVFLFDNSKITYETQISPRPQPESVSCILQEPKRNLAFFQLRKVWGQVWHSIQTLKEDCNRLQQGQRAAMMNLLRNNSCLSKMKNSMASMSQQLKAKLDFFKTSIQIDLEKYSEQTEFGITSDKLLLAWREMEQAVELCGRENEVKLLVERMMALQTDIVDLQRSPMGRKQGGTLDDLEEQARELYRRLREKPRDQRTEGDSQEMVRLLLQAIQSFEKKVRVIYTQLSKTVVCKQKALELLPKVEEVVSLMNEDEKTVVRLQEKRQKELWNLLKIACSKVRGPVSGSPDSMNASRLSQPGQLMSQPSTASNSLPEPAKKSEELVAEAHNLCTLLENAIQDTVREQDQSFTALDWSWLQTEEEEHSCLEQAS

[4] = target: T2, Mitogen-activated protein kinase 12 (Homo sapiens) (UniProt P53778); experiment: Inhibition of human full length p38 gamma expressed in Escherichia coli cell assessed as substrate phosphorylation using fluorescence-labelled peptides as substrate at 70 uM after 90 mins by microfluidic peptide phosphorylation assay
T2 sequence (whole entry): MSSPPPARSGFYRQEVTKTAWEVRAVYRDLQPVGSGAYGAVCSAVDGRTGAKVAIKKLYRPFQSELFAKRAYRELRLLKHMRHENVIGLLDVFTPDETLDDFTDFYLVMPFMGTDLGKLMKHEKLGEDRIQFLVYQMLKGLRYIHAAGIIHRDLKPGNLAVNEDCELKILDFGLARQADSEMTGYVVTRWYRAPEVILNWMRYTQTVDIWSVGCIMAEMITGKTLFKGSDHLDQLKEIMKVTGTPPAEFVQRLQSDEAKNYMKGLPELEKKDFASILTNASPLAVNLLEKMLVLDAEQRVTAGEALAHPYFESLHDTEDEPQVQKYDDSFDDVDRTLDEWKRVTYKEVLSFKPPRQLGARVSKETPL

[5] = target: T2, Mitogen-activated protein kinase 12 (Homo sapiens); experiment: Inhibition of human full length p38 gamma expressed in Escherichia coli cell assessed as substrate phosphorylation using fluorescence-labelled peptides as substrate at 420 uM after 90 mins by microfluidic peptide phosphorylation assay
[6] = target: Mitogen-activated protein kinase 14 (Homo sapiens) (UniProt Q16539); experiment: Inhibition of human truncated p38 alpha expressed in Escherichia coli cell assessed as substrate phosphorylation using fluorescence-labelled peptides as substrate at 420 uM after 90 mins by microfluidic peptide phosphorylation assay
Chain of Mitogen-activated protein kinase 14 (Homo sapiens) (Q16539 whole entry, the tested form may be a part): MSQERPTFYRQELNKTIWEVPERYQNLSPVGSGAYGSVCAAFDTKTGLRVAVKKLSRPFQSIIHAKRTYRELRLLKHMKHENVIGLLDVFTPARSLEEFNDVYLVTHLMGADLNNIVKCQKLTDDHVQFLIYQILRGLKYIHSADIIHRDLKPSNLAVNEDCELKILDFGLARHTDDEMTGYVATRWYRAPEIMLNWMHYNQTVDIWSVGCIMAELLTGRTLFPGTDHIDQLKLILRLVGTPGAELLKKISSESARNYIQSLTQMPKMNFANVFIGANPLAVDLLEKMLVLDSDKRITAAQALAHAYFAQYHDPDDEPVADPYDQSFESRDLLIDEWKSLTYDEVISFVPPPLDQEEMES

[7] = target: T3, Serine/threonine-protein kinase Chk1 (Homo sapiens) (UniProt O14757); experiment: Inhibition of human full length CHK1 expressed in baculovirus assessed as substrate phosphorylation using fluorescence-labelled peptides as substrate at 95 uM after 90 mins by microfluidic peptide phosphorylation assay
T3 sequence (whole entry): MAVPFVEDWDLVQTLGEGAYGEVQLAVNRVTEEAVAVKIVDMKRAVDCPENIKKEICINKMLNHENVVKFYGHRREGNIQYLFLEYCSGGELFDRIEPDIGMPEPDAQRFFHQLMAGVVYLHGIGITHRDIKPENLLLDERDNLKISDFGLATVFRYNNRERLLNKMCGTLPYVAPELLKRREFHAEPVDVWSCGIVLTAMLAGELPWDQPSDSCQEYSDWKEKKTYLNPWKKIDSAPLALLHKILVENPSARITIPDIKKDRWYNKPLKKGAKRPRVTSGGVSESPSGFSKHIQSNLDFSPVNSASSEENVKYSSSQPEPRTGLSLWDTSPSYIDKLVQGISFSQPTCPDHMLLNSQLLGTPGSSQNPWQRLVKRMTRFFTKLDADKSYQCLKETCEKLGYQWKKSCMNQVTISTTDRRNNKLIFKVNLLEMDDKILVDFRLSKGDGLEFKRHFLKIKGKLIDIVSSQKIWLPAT

[8] = target: Epidermal growth factor receptor (Homo sapiens) (UniProt P00533); experiment: Inhibition of human EGFR catalytic domain expressed in baculovirus assessed as substrate phosphorylation using fluorescence-labelled peptides as substrate at 0.1 uM after 90 mins by microfluidic peptide phosphorylation assay

Chain of Serine/threonine-protein kinase Chk2 (Homo sapiens) (O96017 whole entry, the tested form may be a part): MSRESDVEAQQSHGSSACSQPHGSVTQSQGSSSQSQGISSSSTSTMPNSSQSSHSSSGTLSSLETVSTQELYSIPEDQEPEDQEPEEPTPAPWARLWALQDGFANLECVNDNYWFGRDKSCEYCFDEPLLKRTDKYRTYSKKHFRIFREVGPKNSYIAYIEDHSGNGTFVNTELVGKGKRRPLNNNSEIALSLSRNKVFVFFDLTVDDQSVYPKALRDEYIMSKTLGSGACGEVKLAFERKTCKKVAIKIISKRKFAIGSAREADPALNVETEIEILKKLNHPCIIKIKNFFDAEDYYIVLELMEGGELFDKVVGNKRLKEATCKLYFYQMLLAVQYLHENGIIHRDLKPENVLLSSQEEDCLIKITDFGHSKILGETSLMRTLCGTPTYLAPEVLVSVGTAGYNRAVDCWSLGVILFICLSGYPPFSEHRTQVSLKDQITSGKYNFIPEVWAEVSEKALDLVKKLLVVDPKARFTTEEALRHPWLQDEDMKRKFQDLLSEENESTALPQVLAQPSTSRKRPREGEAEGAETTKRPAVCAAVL

Compound: NC1(Cc2ccc(Cl)cc2)CCN(c2ncnc3[nH]ccc23)CC1
- inhibition [1]: 0%
- inhibition [2]: 0%

Compound: CNCc1ccc(-c2ncnc3[nH]cnc23)cc1
- inhibition [3]: 90.5%
- inhibition [4]: 15%

Compound: c1nc(N2CCOCC2)c2nc[nH]c2n1
- inhibition [5]: 41.5%
- inhibition [6]: 0%

Compound: NCCc1ccc(-c2ncnc3[nH]cnc23)cc1
- inhibition [7]: 75.5%

Compound: C[C@H](CN(C)C)Oc1nc(Nc2cc3cccc(Cl)c3cn2)cnc1C#N
- inhibition [8]: 0.5%
